Molecules are shown by their SMILES. The source made the active and inactive calls. No cut-off for these calls is given here. Where only a bound is given, the exact number is not on record here.

Data on 10 compounds can be found in ChEMBL document CHEMBL4823280, “Efficient Synthesis of Icetexane Diterpenes and Apoptosis Inducing Effect by Upregulating BiP-ATF4-CHOP Axis in Colorectal Cells” (J Nat Prod, 2021).

The subject of one series is Caco-2. The experiment in a line: Cytotoxicity against human Caco-2 cells assessed as reduction in cell viability measured after 48 hrs by MTT assay. In kind it is functional, cell-based. As to conditions: Caco-2, 48 h. (In general: Tetrazolium dyes change colour on reduction, which living cells bring about.)
In series [1] the test system is HCT-116. The experiment in a line: Cytotoxicity against human HCT-116 cells assessed as reduction in cell viability measured after 48 hrs by MTT assay. It is filed as functional, cell-based. As to conditions: HCT-116, 48 h.
In the next series the test system is COLO 205. The experiment in a line: Cytotoxicity against human COLO 205 cells assessed as reduction in cell viability measured after 48 hrs by MTT assay. It is filed as functional, cell-based. Particulars: COLO 205, 48 h.
In series [2] the test system is HCT-116. The experiment in a line: Induction of apoptosis in human HCT-116 cells assessed as necrotic cells at 5 uM measured after 24 hrs by Annexin V-FITC/PI staining based flow cytometry analysis (Rvb= 1.18%). It is filed as functional. (In flow cytometry, cells or beads pass a laser one at a time.)
In series [3] the test system is HCT-116. As to the kind of experiment: Inhibition of colony formation in human HCT-116 cells at 1.25 to 10 uM incubated for 14 days by crystal violet staining based analysis. In kind it is functional, cell-based. As to conditions: dose 1.25-10 µM, time 14.0 day.
The subject of series [4] is HCT-116. The experiment in a line: Induction of apoptosis in human HCT-116 cells assessed as late apoptotic cells at 10 uM measured after 24 hrs by Annexin V-FITC/PI staining based flow cytometry analysis (Rvb= 2.89%). It is filed as functional.
Series [5] concerns HCT-116. As to the kind of experiment: Induction of apoptosis in human HCT-116 cells assessed as viable cells at 10 uM measured after 24 hrs by Annexin V-FITC/PI staining based flow cytometry analysis (Rvb= 88.45%). In kind it is functional. Particulars: read-out: Activity.
Series [6] deals with HCT-116. The experiment in a line: Induction of ER stress in human HCT-116 cells assessed as upregulation of ATF4 expression at 5 to 20 uM measured after 6 hrs by western blotting analysis. In kind it is functional, cell-based. As to conditions: dose 5-20 µM.
Series [7] deals with HCT-116. As to the kind of experiment: Induction of apoptosis in human HCT-116 cells assessed as necrotic cells at 10 uM measured after 24 hrs by Annexin V-FITC/PI staining based flow cytometry analysis (Rvb= 1.18%). It is filed as functional.
In series [8] the test system is HCT-116. As to the kind of experiment: Induction of ER stress in human HCT-116 cells assessed as upregulation of CHOP expression at 5 to 20 uM measured after 6 hrs by western blotting analysis. It is filed as functional, cell-based. As to conditions: dose 5-20 µM. For orientation: Immunoblotting shows a protein as a band on a membrane.
A short description of series [9]: Stability of the compound in human HCT-116 cells assessed as Demethylsalvicanol-Quione formation measured after 72 hrs by HPLC analysis. In kind it is ADME, cell-based. Particulars: hct-116, 72 h.
The subject of series [10] is HCT-116. As to the kind of experiment: Induction of apoptosis in human HCT-116 cells assessed as early apoptotic cells at 10 uM measured after 24 hrs by Annexin V-FITC/PI staining based flow cytometry analysis (Rvb= 7.48%). In kind it is functional.
For series [11], the system named is HCT-116. As to the kind of experiment: Induction of apoptosis in human HCT-116 cells assessed as viable cells at 5 uM measured after 24 hrs by Annexin V-FITC/PI staining based flow cytometry analysis (Rvb= 88.45%). In kind it is functional. Particulars: read-out: Activity.
In series [12] the test system is HCT-116. The experiment in a line: Induction of ER stress in human HCT-116 cells assessed as increase in BiP nuclear translocation at 2.5 to 10 uM measured after 6 hrs by DAPI based immunostaining analysis. In kind it is functional, cell-based. As to conditions: dose 2.5-10 µM.
Series [13] has as its system HCT-116. The experiment in a line: Induction of ER stress in human HCT-116 cells assessed as increase in BiP protein expression measured after 6 hrs by western blotting analysis. Particulars: dose 5-20 µM. In kind it is functional, cell-based.
Series [14] concerns HCT-116. As to the kind of experiment: Induction of apoptosis in human HCT-116 cells assessed as early apoptotic cells at 5 uM measured after 24 hrs by Annexin V-FITC/PI staining based flow cytometry analysis (Rvb= 7.48%). It is filed as functional.
In series [15] the test system is HCT-116. As to the kind of experiment: Induction of apoptosis in human HCT-116 cells assessed as late apoptotic cells at 5 uM measured after 24 hrs by Annexin V-FITC/PI staining based flow cytometry analysis (Rvb= 2.89%). It is filed as functional.
Series [16] concerns HCT-116. As to the kind of experiment: Induction of ER stress in human HCT-116 cells assessed as colocalization of BiP with ATF4 at 20 uM measured after 12 hrs by immunofluorescence staining analysis. It is filed as functional, cell-based.

In the case of `O=c1[nH]cc(F)c(=O)[nH]1` [FLUOROURACIL], the results for the IC50 in the series with Caco-2, with HCT-116 [1] and in the series with COLO 205 were 7.77 µM, 7.38 µM and 5.29 µM, respectively.

In the case of `CC(C)c1cc2c(c(O)c1O)C=C1C=CCC(C)(C)[C@@H]1CC2`, the IC50 (in general, the midpoint of a concentration-inhibition curve) in the series with Caco-2 was 7.2 µM; in the series on HCT-116 [1] it was 10.6 µM; in the series on COLO 205 it was 7.81 µM.

On to `CC(C)c1cc2c(c3c1O[C@@]1(C(C)C)C(=O)C(=O)C4=C(CC[C@H]5C(C)(C)CCC[C@]5(O)C4)[C@H]1O3)C[C@@]1(O)CCCC(C)(C)[C@@H]1CC2`, for which the IC50 was 2.69 µM in the series with Caco-2, 2.7 µM in the series with HCT-116 [1] and 3.39 µM in the series on COLO 205. Besides, the Activity was 5.28% with HCT-116 [2]; 19.84% in the series on HCT-116 [4]; 7.97% in the series with HCT-116 [7]; 13.38% in the series on HCT-116 [10]; “Dose-Dependent Effect” in the series on HCT-116 [13]; 14.73% with HCT-116 [14]. In addition, the Activity in the series with HCT-116 [15] was 16.43%. Further, in the series on HCT-116 [3], the inhibition entry was “Active”. The viability at 10 µM with HCT-116 [5] amounted to 58.8%. For the same compound, the result in the series with HCT-116 [6], with HCT-116 [8], with HCT-116 [12] and in the series with HCT-116 [16] was Active. The Stabilty entry in series [9] was “Stable”. Moreover, the viability at 5 µM in the series on HCT-116 [11] is 63.6%.

Consider `CC(C)C1=CC2=C(C[C@@]34CCCC(C)(C)[C@@H]3C[C@@H]2O4)C(=O)C1=O`, for which the results for the IC50 in the series with Caco-2, with HCT-116 [1] and in the series with COLO 205 were 3.86 µM, 13.3 µM and 10.4 µM, respectively.

Consider `CC(C)C1=CC2=C(C[C@@]3(O)CCCC(C)(C)[C@@H]3CC2)C(=O)C1=O`, for which the IC50 came to 2.71 µM in the series with Caco-2, 2.93 µM in the series with HCT-116 [1] and 3.18 µM with COLO 205.

As to `CC(C)c1cc2c(c(O)c1O)C[C@@]1(O)CCCC(C)(C)[C@@H]1CC2`, the IC50 in the series on Caco-2 is 3.07 µM; in the series on HCT-116 [1], 18.8 µM; in the series with COLO 205 it was 11.2 µM.

In the case of `CC(C)c1cc2c(c(O)c1O)CC1=CCCC(C)(C)[C@@H]1CC2`, the IC50 was 13.7 µM in the series with Caco-2, more than 20.9 µM in the series with HCT-116 [1] and more than 20.9 µM with COLO 205.

`CC(=O)Oc1c(C(C)C)cc2c(c1OC(C)=O)C[C@@]13O[C@@H]1CCC(C)(C)[C@@H]3CC2`: the IC50 with Caco-2 is 13.8 µM; with HCT-116 [1], 11.1 µM; with COLO 205, 7.52 µM.

Regarding `CC(C)c1cc2c(c(O)c1O)C[C@@]13CCCC(C)(C)[C@@H]1C[C@@H]2O3` [BRUSSONOL], the IC50 in the series on Caco-2, in the series on HCT-116 [1] and in the series on COLO 205 was more than 20.2 µM each time.

In the case of `CC(=O)Oc1c(C(C)C)cc2c(c1OC(C)=O)CC1=CCCC(C)(C)[C@@H]1CC2`, the IC50 amounted to 10.4 µM in the series with Caco-2, 18.6 µM in the series on HCT-116 [1] and 18.5 µM with COLO 205.
